Key:
dN-SARM1 protein = target: T1, dN-SARM1 protein (Homo sapiens, UniProt Q6SZW1); assay: In vitro biochemical assay for inhibiting SARM1 enzymatic activity (IC50), PC6 fluorescence method; settings: 50 μM NAD, 50 μM PC6, 50 μM NMN activator
T1 construct: the N-terminal mitochondrial localization signal peptide of SARM1 was removed
T1 sequence (Q6SZW1 28-724): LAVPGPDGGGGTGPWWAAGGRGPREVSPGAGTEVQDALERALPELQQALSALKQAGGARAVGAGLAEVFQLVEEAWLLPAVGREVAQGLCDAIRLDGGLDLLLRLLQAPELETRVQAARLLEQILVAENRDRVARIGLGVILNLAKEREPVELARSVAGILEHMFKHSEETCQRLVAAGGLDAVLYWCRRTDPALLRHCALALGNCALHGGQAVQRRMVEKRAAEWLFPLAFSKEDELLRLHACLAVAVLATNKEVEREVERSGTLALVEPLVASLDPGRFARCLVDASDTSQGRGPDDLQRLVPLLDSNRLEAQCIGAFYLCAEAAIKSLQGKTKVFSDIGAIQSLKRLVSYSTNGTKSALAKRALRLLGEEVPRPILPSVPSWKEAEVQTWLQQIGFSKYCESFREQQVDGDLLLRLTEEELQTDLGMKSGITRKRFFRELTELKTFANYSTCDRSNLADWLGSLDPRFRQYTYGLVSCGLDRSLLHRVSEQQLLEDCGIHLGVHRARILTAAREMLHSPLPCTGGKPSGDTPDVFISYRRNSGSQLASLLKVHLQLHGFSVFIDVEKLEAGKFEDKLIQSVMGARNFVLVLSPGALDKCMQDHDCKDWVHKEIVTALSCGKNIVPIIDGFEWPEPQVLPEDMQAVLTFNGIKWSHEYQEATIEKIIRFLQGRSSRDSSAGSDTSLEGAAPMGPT
Protocol: 200 μM compound was first added to a solution of 0.05 μg/ml dN-SARM1 in 50 mM Tris-HCl (pH 7.5). Half of the mixture was added to an equal volume of a solution of 0.05 μg/ml dN-SARM1 in 50 mM Tris-HCl (pH 7.5) and mixed. The drug was diluted 6 times in this manner, with the final concentrations being 200, 100, 50, 25, 12.5, 6.25, 3.125 μM, or 200, 50, 12.5, 3.125, 0.78, 0.195, 0.049 μM, respectively. The protein without inhibitors added, being used as control group, was incubated at room temperature for 10 minutes.
50 μM NAD, 50 μM PC6 as substrate and 50 μM NMN as activator were added to the dN-SARM1 protein incubated with the inhibitor and reacted for 30 minutes at room temperature. The concentration of each component was the final concentration in the reaction system.
During the reaction, PC6 fluorescence spectrum dynamics were detected by a microplate reader, wherein the excitation wavelength and emission wavelength for detection were 390 nm and 520 nm, respectively. Finally, the reaction rate was used to express the activity of the protein, and the half inhibitory concentration was calculated. The higher the reaction rate, the stronger the protein activity, and the lower the inhibitory efficiency of the compound.
The dose curve of compounds inhibiting SARM1 enzymatic activity was determined using the above method.

[1] = target: T2, SARM1 protein in iSARM1 (HEK293) cells (Homo sapiens, UniProt Q6SZW1); assay: Inhibitory activity in inducible SARM1 overexpressing cell line, intracellular cADPR level; assay type: cell-based; settings: activator CZ-48 100 μM, cADPR content
T2 construct: The full-length SARM1 was synthesized into the pUC57 plasmid by WZ Biosciences Inc., and PCR was performed using pUC57-SARM1 as a DNA template
T2 sequence (Q6SZW1 28-724): T1 sequence (Q6SZW1 28-724)
Protocol: In this example, the gene sequence of SARM1 was amplified using PCR, and constructed into pInducer20-neo plasmid. pInducer20-SARM1 virus was packaged in a liposome and infected HEK293 to obtain an inducible SARM1-overexpressing cell line, which was labeled as iSARM1 (HEK293). The specific preparation was as follows:
First, a 96-well culture plate was treated with 0.05 mg/ml polylysine for 5 minutes and washed once with PBS. 3×10^4 iSARM1 (HEK293) cells were plated into the 96-well plate and cultured overnight in a 37° C. and 5% incubator. The next day, the cells were added with an inhibitor with a final concentration of 50 μM, incubated in the incubator for 1.5 hours, added with activator CZ-48 with a final concentration of 100 μM, and incubated for 16 hours. Meanwhile, the cells without adding CZ-48 or without adding drug were set as control group. Finally, the intracellular cADPR level was detected to represent the activity of SARM1, and the inhibition rate of SARM1 in cells by 50 μM inhibitor was calculated.
The cADPR measurement was performed as follows. First, the cells were washed once with PBS, and added with 150 μl of pre-cooled 0.6M perchloric acid (PCA) to quickly lyse the cells and precipitate the protein. The PCA supernatant was transferred to a 1.5 ml centrifuge tube. The protein in the culture medium was dissolved again with 100 μl of 1M NaOH. The supernatant was added with 0.5 ml of organic reagent mixture (trioctylamine:chloroform=1:3) to extract PCA from water. After sufficient shaking, the mixture was centrifuged at 12,000 rpm for 10 minutes. The solution was divided into 3 layers: the upper aqueous phase, containing the small molecules of interest; the lower organic phase, in which PCA was dissolved; and a thin protein layer between the upper and lower layers. The upper layer was transferred to a new centrifuge tube, added with 1M Tris-Mg at a ratio of 1:100 (1M Tris (pH 8.0): 1M MgCl2=9:1), added with NADase at a ratio of 1:250, and treated at 37° C. overnight to remove NAD^+ from the mixed solution. After the treatment was completed, the mixed solution was filtered using Millipore's 10 K 96-well filter plate to remove NADase.
The cADPR content in the solution was determined through Cycling analysis method. The specific steps were as follows: 20 μl of the sample to be tested or the cADPR standard was taken and added to a 96-well opaque white plate. Preparation of reaction solution: 9.6 ml of PBS (pH 7.4), 200 μl of ethanol, 150 μl of 1 mg/ml AD, 10 μl of 10 mM FMN, 5 μl of 18 mg/ml Diaphorase, 10 μl of 10 mM Resazurin, and 100 μl of 1M Nam. Half of the reaction solution was divided and added with 0.2 μg/ml cyclase. The reaction solution without adding cyclase was used as control experiment. Each sample was divided into two groups, 3 replicates in each group. The reaction solutions containing or not containing cyclase were added to each group to perform the reaction. The reaction kinetic curve within 30 minutes was recorded (Ex:Em=544/599). The average slope of the reaction was calculated. Conversion was performed according to cADPR standard to obtain the accurate cADPR content. A curve of intracellular cADPR content vs corresponding inhibitor concentration was plotted. The half inhibitory concentration of the inhibitor was calculated.

Structure (SMILES)	IC50 (dN-SARM1 protein)	EC50 [1]
CN(C(=O)OC(C)(C)C)c1ccc2ncc(-c3ccc(NC(=O)c4ccccc4)s3)n2c1 [Compound 181]	1 to 10 µM	1 to 10 µM
CN(C(=O)COC1CCOC1)c1cccc(-c2cnc3ccc(N(C)C(=O)OC(C)(C)C)cn23)c1 (centres unmarked) [Compound 160]	< 1 µM	< 1 µM
CC(=O)Nc1cccc(-c2cnc3ccc(N(C)C(=O)OC(C)(C)C)cn23)c1 [Compound 96, tert-butyl (3-(3-acetylaminophenyl)imidazo[1,2-a]pyridin-6-yl)(methyl)carbamate]	< 1 µM	1 to 10 µM
CC(C)(C)OC(=O)N(C/C=C/c1cccc(N)c1)c1ccc2ncc(-c3cccc(NC(=O)C4CCOCC4)c3)n2c1 [Compound 219]	1 to 10 µM	1 to 10 µM
Cc1ncsc1-c1ccc(CNC(=O)[C@@H]2C[C@@H](O)CN2C(=O)[C@@H](NC(=O)COCCOCC(=O)Nc2cccc(-c3cnc4ccc(N(C)C(=O)OC(C)(C)C)cn34)c2)C(C)(C)C)cc1 [Compound 113]	1 to 10 µM	1 to 10 µM
O=C(Nc1cccc(-c2cnc3ccc(N4CCOCC4)cn23)c1)[C@H]1C[C@H](N2CCOCC2)C1 [Compound 231]	1 to 10 µM	1 to 10 µM
CN(C(=O)OC(C)(C)C)c1ccc2ncc(-c3ccncc3F)n2c1 [Compound 278]	1 to 10 µM	1 to 10 µM
CNc1ccc2ncc(-c3ccccc3Cl)n2c1 [Compound 68, 3-(2-chlorophenyl)-N-methylimidazo[1,2-a]pyridin-6-amine]	1 to 10 µM	1 to 10 µM
CN(C(=O)OC(C)(C)C)c1ccc2ncc(-c3cccc(NC(=O)COC4CCOC4)c3)n2c1 (centres unmarked) [Compound 237]	< 1 µM	< 1 µM
CN(C(=O)OC(C)(C)C)c1ccc2ncc(-c3cccc(NC(=O)COCCOCCOCC(N)=O)c3)n2c1 [Compound 99, tert-butyl (3-(3-(2-(2-(2-(2-amino-2-oxoethoxy)ethoxy)ethoxy)acetamido)phenyl)imidazolin[1,2-a]pyridin-6-yl)(methyl)carbamate]	1 to 10 µM	1 to 10 µM
CNc1ccc2ncc(-c3nccc4[nH]ccc34)n2c1 [Compound 183]	1 to 10 µM	1 to 10 µM
CN(C(=O)OC(C)(C)C)c1ccc2ncc(-c3cccc4[nH]ccc34)n2c1 [Compound 275]	1 to 10 µM	1 to 10 µM
CN(C(=O)OC(C)(C)C)c1ccc2ncc(-c3cccc(NC(=O)C4CCCO4)c3)n2c1 (centres unmarked) [Compound 245]	1 to 10 µM	< 1 µM
CN(C(=O)OC(C)(C)C)c1ccc2ncc(C3CCCCC3)n2c1 [Compound 84, tert-butyl (3-cyclohexylimidazo[1,2-a]pyridin-6-yl)(methyl)carbamate]	1 to 10 µM	< 1 µM
CN(C(=O)OC(C)(C)C)c1ccc2ncc(-c3cccc(NC(=O)[C@H]4CCOC4)c3)n2c1 [Compound 239]	< 1 µM	< 1 µM
COc1cccc(-c2cnc3ccc(N(C)C(=O)OC(C)(C)C)cn23)c1 [Compound 13]	< 1 µM	1 to 10 µM
CN(C(=O)OC(C)(C)C)c1ccc2ncc(-c3cccc(OCCOCc4ccccc4)c3)n2c1 [Compound 156]	1 to 10 µM	1 to 10 µM
CN(C(=O)OC(C)(C)C)c1ccc2ncc(-c3cccc(CNC(=O)OC(C)(C)C)c3)n2c1 [Compound 254]	< 1 µM	1 to 10 µM
O=C(Nc1cccc(-c2cnc3ccc(NC/C=C/c4ccccc4)cn23)c1)C1CCOCC1 [Compound 215]		< 1 µM

Structure (SMILES)	IC50 (dN-SARM1 protein)	EC50 [1]
CNc1ccc2ncc(-c3cncc4[nH]cc(I)c34)n2c1 [Compound 209]	1 to 10 µM	
CNc1ccc2ncc(-c3ccc4ccncc4c3)n2c1 [Compound 271]	< 1 µM	
CN(C(=O)OC(C)(C)C)c1ccc2ncc(-c3cncnc3)n2c1 [Compound 283]	1 to 10 µM	
CNc1ccc2ncc(-c3cnc(N)nc3)n2c1 [Compound 195]	1 to 10 µM	
CN(C(=O)OC(C)(C)C)c1ccc2ncc(-c3ccc4ccncc4c3)n2c1 [Compound 270]	< 1 µM	
CN(C(=O)C1CC1)c1ccc2ncc(-c3cccc(N)c3)n2c1 [Compound 306]	< 1 µM	
CN(C(=O)OC(C)(C)C)c1ccc2ncc(-c3ccnc4[nH]ccc34)n2c1 [Compound 184]	1 to 10 µM	
CNc1ccc2ncc(-c3ccncc3)n2c1 [Compound 74]	1 to 10 µM	
CNc1ccc2ncc(-c3cncc4ccccc34)n2c1 [Compound 269]	1 to 10 µM	
CNc1ccc2ncc(-c3cccc(S(=O)(=O)N(C)C(=O)OC(C)(C)C)c3)n2c1 [Compound 59, tert-butyl methyl ((3-(6-(methylamino)imidazo[1,2-a]pyridin-3-yl)phenyl)sulfonyl)carbamate]	1 to 10 µM	
CN(C(=O)OC(C)(C)C)c1ccc2ncc(-c3cnc(N)nc3)n2c1 [Compound 194]	1 to 10 µM	
CNc1ccc2ncc(-c3cccc(NC(=O)c4ccccc4)n3)n2c1 [Compound 172]	< 1 µM	
Nc1cccc(-c2cnc3ccc(N4CCCC4=O)cn23)c1 [Compound 204]	1 to 10 µM	
COC(=O)c1ccn2c(-c3ccccc3)cnc2c1 [Compound 23]	1 to 10 µM	
CNc1ccc2ncc(-c3ccc4cn[nH]c4c3)n2c1 [Compound 284]	1 to 10 µM	
CNc1ccc2ncc(-c3cccc4c3CC(=O)N4)n2c1 [Compound 298]	1 to 10 µM	
CNc1ccc2ncc(-c3ccccc3C)n2c1 [Compound 67]	1 to 10 µM	
CN(C(=O)OC(C)(C)C)c1ccc2ncc(-c3cccc(OCCOC4CCOC4)c3)n2c1 (centres unmarked) [Compound 155]		< 1 µM
CNc1ccc2ncc(-c3cccc(NC(=O)COCc4ccccc4)c3)n2c1 [Compound 250]	1 to 10 µM	

From patent US20240368168A1, “SARM1 ENZYME ACTIVITY INHIBITOR AND APPLICATION THEREOF” (ARTIVILA BIOPHARMA, priority 2021, published 2024)
